Like-named read-outs stand apart in the source and are kept apart here. Square brackets hold non-standard residues; d marks the D form. Peptide text beside a SMILES is read from it. ξ: configuration not given here. Dmt = Cc1cc(O)cc(C)c1C[C@H](N)C(=O)O; ξGly(octyl) = CCCCCCCCC(N)C(=O)O
How the values were obtained:
[1] = Caco-2 cell permeability assay; assay type: in vitro ADME, human; settings: human, Caco-2, pH 7.4, across Caco-2 cell monolayers, mean ± SEM
Procedure: (§1) A suspension of 10^5 Caco-2 cells (100 µL) in culture medium supplemented with 1% penicillin/streptomycin (100 U/mL) was pipetted into polycarbonate cell culture inserts (pore size 0.4 µm, 6.5 mm diameter, Transwell®) in a 24-well plate, and the same medium was also added to the basolateral chamber (0.6 mL). Medium in both chambers was changed every second day.
(§2) After 21–28 days, the integrity of the tight junctions and the monolayers was assessed by measuring the transepithelial electrical resistance (TEER) using the Millicell-ERS epithelial volt-ohmmeter system (Millipore Corporation). Wells that gave TEER values of 1500–4280 (Ωcm^2) were used for the experiment.
(§3) After the initial TEER test, the Caco-2 cell monolayers were washed with HBSS-Hepes buffer (3×) and then incubated with the same buffer at 37°C. After 30 minutes the buffer was removed from the apical chamber and 100 µL aliquots of peptides, dissolved to a concentration of 200 µM in HBSS-Hepes containing 1% DMSO, were added to at least three wells. As a further test of the Caco-2 cell monolayer integrity, radiolabelled [^14C]-D-mannitol (1.80 µCi) in HBSS-Hepes buffer was added to three wells. The plates were incubated in a shaker set to 400 rpm at 37°C, and samples (0.4 mL) were collected from the basolateral chamber at 30, 90, 120 and 150 minutes and replaced with the same volume of buffer. At the end of the experiment, 50 µL were collected from the apical chamber of each well. LC-MS quantification of the peptides was performed as described in Caco-2 cell homogenate stability assay. The radioactivity of the [^14C]-D-mannitol samples was quantified by liquid scintillation counting (Liquid Scintillation Systems, BECKMAN LS3801, USA), and the apparent permeability (P app) for each compound was calculated using the following equation: [drawing 1] dC/dt steady-state rate of change in the chemical concentration (M/s) or radiochemical concentration (dpm mL/s) in the receiver chamber
(§4) Vr volume of the receiver chamber (mL)
(§5) A surface area of the cell monolayers
(§6) C0 initial concentration in the donor chamber (M or dpm/mL)

Caco-2 cell monolayers = experiment: Caco-2 cell permeability assay; assay type: in vitro ADME, human; settings: for P app (×10^−7, cm/s): across Caco-2 cell monolayers, mean ± SEM; for increase in permeability (P app) compared to peptide 1: Caco-2 cell monolayers, vs 1 in the same experiment
Procedure: as §1, §2, §3, §4, §5, §6

MOP receptor [2] = target: T1, MOP receptor (Homo sapiens, UniProt P35372); experiment: SH-SY5Y receptor binding assay ([3H]DAMGO displacement from whole cells); settings: DPDPE 1 µM, read-out: K iμ
T1 construct: SH-SY5Y cells, which endogenously expresses MOP and δ-opioid (DOP) receptors; host or cells: SH-SY5Y human neuroblastoma cells
Procedure: A suspension of SH-SY5Ycells (10^5 cells per well) was seeded into 24-well plates and incubated overnight. The cells were washed with PBS and pre-incubated with 300 µL binding buffer (50 mM Tris buffer, pH 7.4, 2% BSA). A mixture of [^3H]-DAMGO (100 µL, 15 nM), DPDPE (100 µL, 1 µM) and 100 µL aliquots of each peptide in a range of concentrations (0.1 nM to 100 µM) was added to each well and the plate was incubated at 37°C. An excess of [^3H]-DAMGO (1 µM) was used to determine non-specific binding and buffer (100 µL) was measured as the blank. After 60 minutes, the cells were washed with PBS and 1 M NaOH (0.5 mL) was used to lyse the cells. The radioactivity of the cell suspension was measured by scintillation counting (Liquid Scintillation Systems, BECKMAN LS3801, USA). Data analysis was performed using the one-site competition binding model (GraphPad Prism™ (v5.0) software).

[3] = Caco-2 cell homogenate stability assay; assay type: in vitro ADME, human; settings: for half-life: human, Caco-2, pH 7.4, Caco-2 cell homogenate, mean ± SEM, read-out: t 1/2 (min, Caco-2)
Procedure: A suspension of 5×10^4 Caco-2 cells in 100 µL culture medium was added to the wells of a 96-well cell culture plate. Culture medium supplemented with 1% penicillin/streptomycin (100 U/mL) was changed every second day.
After 21–28 days, the cells were washed with 0.2% EDTA (2×100 µL) and Hank's Balanced Salt Solution containing 25 mM 4-(2-hydroxyethyl)-1-piperazineethanesulfonic acid (HBSS-Hepes, pH 7.4; 3×100 µL). HBSS–Hepes buffer was added to each well (100 µL), and the cells were disrupted by two one-second pulses with a Sonics Vibracell ultrasonic processor set at 60% amplitude at 130 W. The cell debris was removed by centrifugation (2000 rpm, 5 minutes) and the protein content of three wells was determined using the Bio-Rad protein assay kit, by comparison with a standard curve generated from known concentrations of bovine serum albumin. The protein content of the cell homogenate was adjusted to 0.6–0.9 mg/mL in a clean 96-well plate.
The peptides were dissolved in HBSS–Hepes buffer containing 1% DMSO (dimethyl sulfoxide), and each peptide solution (200 µM, 100 µL) was added to three wells and the plate was incubated at 37°C in a shaker at 400 rpm. At pre-selected time points (5, 10, 15, 20, 30, 40, 50, 60, and 120 min), samples (10 µL) were collected and enzymatic digestion was stopped by addition of 5 µL TFA. These samples were then diluted with water (75.5 µl) and DMSO (9.5 µL) and analyzed by LC-MS to determine the concentration of peptide remaining in the solution.
LC-MS was carried out on a Luna Phenomenex C18 column (2.0×50 mm, 5 µm) with a gradient of 100% A (0.1% formic acid in water) to 100% B (0.1% formic acid in acetonitrile/water 9∶1) over 5.5 minutes at a flow rate of 0.3 mL/min. The mass spectrometer was set to selective ion monitoring in the positive ion electrospray mode. A standard curve was generated from standards containing known peptide concentrations, and used to determine the peptide concentration in the samples.

Plasma stability assay = assay type: in vitro ADME; settings: human plasma, 37°C, mean ± SEM; read-out: t 1/2 (min, Plasma)
Procedure: Fresh human plasma was obtained from healthy and consenting volunteers (ethics approval number: 2006000950). The peptides were dissolved in PBS containing 5% DMSO (1 mg/mL), and 300 µL aliquots were mixed with 300 µL of pre-warmed plasma and incubated at 37°C. At selected time points (5, 10, 20, 30, 40, 60, 90, and 120 min), samples (50 µL) were collected and plasma proteins precipitated by addition of acetonitrile (75 µL). After centrifugation (10,000 rpm, 10 minutes), the peptide content of the supernatant was analyzed by HPLC with a Vydac C18 column (4.6×250 mm, 5 µm) at a flow rate of 1 mL/min and a gradient of 100% A (0.1% TFA in water) to 100% B (0.1% TFA in acetonitrile/water 9∶1) over 30 minutes.

MOP receptor [4] = target: T1, MOP receptor; experiment: Inhibition of forskolin-stimulated cAMP formation in SH-SY5Y cells; assay type: cell-based
Procedure: SH-SY5Y cells, which express MOP and DOP receptors, were seeded (10^5 cells/mL, 100 µL) in a 96-well plate and incubated overnight to reach 80% confluence. Culture medium supplemented with 30 µM forskolin was used make peptide solution (100 nM) and aliquots (100 µL) of each peptide were added to three wells. After incubation at 37°C for 30 minutes, the culture medium was removed and lysis buffer from a cAMP Biotrak EIA kit (Amersham, Buckinghamshire, UK) was added, followed by an anti-cAMP antibody. After incubation at 4°C for 2 hours, a cAMP peroxidase conjugate was added and the plate incubated for another hour at 4°C. Then, the cell lysate was incubated with a 3,3′5,5′-tetramethylbenzidine (TMB) substrate provided by the Biotrak EIA kit and finally […] sulfuric acid was added. Absorbance of each well was determined using a plate reader at 450 nm and compared with a cAMP standard curve (concentration 0–3.2 pmol). Data was represented as a percentage of the maximum cAMP response to forskolin, shown as a mean (±SEM) of three separate experiments each performed in triplicate (GraphPad Prism™ (v5.0) software).

[5] = system: gastrointestinal transit of a charcoal meal in rats; experiment: Charcoal test (gastrointestinal transit); assay type: in vivo, rat
Procedure: (§7) • Castor oil-induced diarrhea test in rats The ability of test items to inhibit castor-oil induced diarrhea as an index of constipation was assessed. Prior to the start of experimentation, drug-naive rats weighing 200–250 g were fasted for 16 h with free access to water. Individually caged rats were acclimatized for 1 h without access to food or water prior to drug or vehicle administration. […] Rats were gavaged with 1 mL of castor oil five minutes after test item or vehicle administration. Presence or absence of diarrhea was recorded every hour according to a scoring system based on the weight of feces boli and the feces consistency. Weight was scored from 0 (no feces) to 3 (>3 g of feces) and consistency was scored from 0 (normal-shape feces) to 3 (shapeless feces with large amounts of liquid). When both weight of feces and the feces consistency were scored at ≥2, diarrhea was considered to be present. • Charcoal test The charcoal test was assessed in groups of drug-naive rats to measure gastrointestinal (GI) transit. […] The total length of the small intestine from the pylorus to the ileocaecal junction as well as the most distal point of migration of the charcoal meal was measured. The percentage of the distance which the charcoal meal travelled relative to the total length of the small intestine (GI propulsion) was calculated.

[6] = system: castor oil-induced diarrhea in rats; experiment: Castor oil-induced diarrhea test in rats; assay type: in vivo, rat
Procedure: as §7

[7] = system: CCI-rat model of neuropathic pain; experiment: Antinociception in CCI-rat model of neuropathic pain (Von Frey paw withdrawal thresholds); assay type: in vivo; settings: morphine i.v. at equi-effective dose, CCI-rats, p<0.001 vs vehicle
Text: Chronic constriction injury (CCI) of the sciatic nerve in the rat was used as a model of neuropathic pain and was induced according to the method of Bennett and Xie [21]. Briefly, rats were anesthetized with 3% isoflurane delivered in oxygen. A 7 mm segment of the left common sciatic nerve was exposed at mid-thigh level, proximal to the sciatic trifurcation. […] The surgical incision was closed by suturing the muscles and skin in layers. To prevent infection, topical antibiotic powder was applied to the wound. The day of CCI surgery was regarded as day 0. Rats were inspected daily considering posture of the affected hindpaw, exploring behavior, body weight, water intake, and signs of autotomy until experimentation day, which was 14 days post-surgery.
Paw withdrawal thresholds (PWT's), expressed in grams, were measured using a set of calibrated Von Frey filaments (Touch Test- North Coast, 800-821-9319). Animals were acclimatized for at least 15 min in wire mesh metabolic cages (20×20×17 cm). Von Frey filaments which delivered forces in the range 2–20 g at 2 g intervals were used according to the up-down method [20]. Filaments were applied to the plantar surface of the footpad of the hindpaw so that the filament bent slightly for 3 seconds. […]

[8] = separate experiment [d] with 1 and 3 tested together

T1 sequence (P35372 whole entry): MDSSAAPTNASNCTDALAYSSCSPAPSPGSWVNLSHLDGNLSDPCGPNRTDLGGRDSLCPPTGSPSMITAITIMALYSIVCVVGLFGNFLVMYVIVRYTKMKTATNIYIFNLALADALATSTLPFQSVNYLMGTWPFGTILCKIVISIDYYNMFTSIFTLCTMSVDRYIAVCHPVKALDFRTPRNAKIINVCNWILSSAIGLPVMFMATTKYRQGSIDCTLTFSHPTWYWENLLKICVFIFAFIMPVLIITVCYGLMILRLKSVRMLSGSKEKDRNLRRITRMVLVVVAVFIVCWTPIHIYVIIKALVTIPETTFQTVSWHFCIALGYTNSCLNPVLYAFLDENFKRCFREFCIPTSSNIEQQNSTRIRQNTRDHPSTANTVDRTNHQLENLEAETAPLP

| SMILES | Papp A→B at 150 min, 200 µM ([1]; LC/MS) | Papp A→B at 150 min, 200 µM [1, 8] | P app (×10^−7, cm/s) (Caco-2 cell monolayers; LC/MS) | Ki (MOP receptor [2]; mean ± SEM) | half-life ([3]; 37°C) | half-life (Plasma stability assay) | IC50 (MOP receptor [4]) | increase in permeability (P app) compared to peptide 1 (Caco-2 cell monolayers) | also measured |
| --- | --- | --- | --- | --- | --- | --- | --- | --- | --- |
| NC(=O)[C@H](Cc1ccccc1)NC(=O)[C@H](Cc1c[nH]c2ccccc12)NC(=O)[C@@H]1CCCN1C(=O)[C@@H](N)Cc1ccc(O)cc1 [Compound 1, Tyr-Pro-Trp-Phe-NH2, reference compound] | 0.02 ± 0.002 ×10⁻⁶ cm/s | 0.1 ± 0.034 ×10⁻⁶ cm/s | 0.2 (±0.02) ×10^−7 cm/s | – | – | – | – | – | – |
| Cc1cc(O)cc(C)c1C[C@H](N)C(=O)N1CCC[C@H]1C(=O)N[C@@H](Cc1c[nH]c2ccccc12)C(=O)N[C@@H](Cc1ccccc1)C(N)=O [Compound 2] | 0.25 ± 0.03 ×10⁻⁶ cm/s | – | 2.5 (±0.3) ×10^−7 cm/s | 0.06 ± 0.01 nM | 24.1 ± 3.6 min | 4.2 ± 1.5 min | 0.3 ± 0.02 nM | – | – |
| CCCCCCCCC(N)C(=O)N[C@@H](Cc1ccc(O)cc1)C(=O)N1CCC[C@H]1C(=O)N[C@@H](Cc1c[nH]c2ccccc12)C(=O)N[C@@H](Cc1ccccc1)C(N)=O (stereo partly shown) [Compound 3] (H-[ξGly(octyl)]YPWF-NH2) | – | 9.01 ± 1.22 ×10⁻⁶ cm/s | – | – | – | – | 31.4 ± 1.45 nM | ~90 fold | GI propulsion (%) ([5]; i.v. 16 µmol/kg, mean (± SEM)): 64.3 (±3.0) %; Ki (MOP receptor [2]; separate experiment [d] with 1 and 3, mean ± SEM): 25.7 ± 1.3 nM; inhibition of castor oil-induced diarrhea ([6]; i.v. doses up to 16 µmol/kg, p>0.05): No significant inhibition; half-life [3, 8]: 77.4 ± 7.1 min; P app (×10^−7, cm/s) (Caco-2 cell monolayers; [8]): 90.1 (±12.2) ×10^−7 cm/s |
| CCCCCCCCC(N)C(=O)N[C@@H](Cc1c(C)cc(O)cc1C)C(=O)N1CCC[C@H]1C(=O)N[C@@H](Cc1c[nH]c2ccccc12)C(=O)N[C@@H](Cc1ccccc1)C(N)=O (stereo partly shown) [Compound 4] (H-[ξGly(octyl)][Dmt]PWF-NH2) | 1.24 ± 0.47 ×10⁻⁶ cm/s | – | 12.4 (±4.7) ×10^−7 cm/s | 0.5 nM | 96.3 ± 8.3 min | 41.4 ± 3.3 min | 1.3 ± 0.22 nM | 62 fold | increase in Caco-2 cell homogenate stability compared with parent peptide 1 ([3]; vs peptide 1 tested in the same experiment): 34 fold |
| CN1CC[C@]23c4c5ccc(O)c4O[C@H]2[C@@H](O)C=C[C@H]3[C@H]1C5 [morphine, reference compound] | – | – | – | – | – | – | – | – | GI propulsion (%) ([5]; i.v. 2 µmol/kg, mean ± SEM, p<0.001): 29.5±4.6%; inhibition of castor oil-induced diarrhea ([6]; i.v. 2 µmol/kg, p<0.001): inhibited castor oil-induced diarrhea significantly; antinociception in the contralateral (uninjured) hindpaw [7]: produced significant antinociceptive activity |
